From patent publication US11390661B2, “HCMV entry inhibitors” (priority 2016, dated 2022)

How the values were obtained:
HCMV strain TB40/E [1] = assay: Inhibition of infection of fibroblasts (HFFs), IE antigen immunofluorescence; assay type: cell-based, Human cytomegalovirus
Experimental: (§1) For testing the inhibitory effect of antivirals or fusion proteins on HCMV, the respective inhibitors were diluted in MEM and mixed with infectious supernatants, the mixtures were incubated for 2 h at 37° C. before addition to the cells. For fibroblast infection the virus-inhibitor mixture was incubated on the cells for about 24 h. If endothelial cells were included in the experiment, all cells were supplied with their respective maintenance media after 2 h, and further incubated for 22 h.
(§2) Infection efficiencies were determined by immunofluorescence staining for viral proteins. For fixation and permeabilization the cells were incubated with 80% acetone for 5 min. For HCMV infected cells the immediate early proteins pUL122/123 were detected with a mouse monoclonal (clone E13, Argene) and visualized using a Cy3 conjugated goat anti-mouse secondary antibody (Jackson Immuno Research). HSV infected cultures were stained 6 h post infection for ICP0 using a mouse monoclonal (clone 11060, Santa Cruz) and goat anti-mouse AF488 (life technologies). DAPI was used to locate nuclei. Infection rates were determined by counting the number of cell nuclei positive for the respective viral protein, as well as the total number of nuclei per image. For each condition three images were evaluated.
To test this, the inventors pre-incubated cell free preparations of HCMV strain TB40/E with variable concentrations of soluble PDGFR-alpha-Fc chimeras for 2 h before adding them to HFFs and HECs. After 2 h the virus was removed and replaced with the appropriate cell culture medium for an overnight incubation. Cultures were then fixed, and the fraction of infected cells was determined by indirect immunofluorescence staining of viral IE antigens.
Cell free preparations of TB40/E were pre-incubated with increasing concentrations of the various Fc chimeras for 2 h. HFFs were then incubated with the mixtures for 2 h followed by a medium exchange and an overnight incubation.

HCMV TB40E = assay: Post adsorption inhibition on HFFs with or without PEG fusion; assay type: cell-based, Human cytomegalovirus
Experimental: For the analysis of post adsorption inhibition, HFFs were seeded at a density of 40,000 per well on IBIDI plates and incubated for 1 day before infection. Infectious supernatants of TB40E which were produced within 24 hours were cleared by centrifugation. Two identical plates were treated as follows: Cells and virus dilutions were precooled on ice for 15 min before attachment of the virus was allowed on ice for 1 h. The virus containing medium was exchanged by pre-cooled MEM with or without 200 ng/ml PDGFR-alpha-Fc. After 2 h incubation of the inhibitor with the cells on ice, one plate was directly shifted to 37° C., whereas the other cells were treated with pre-warmed 50% PEG (Roche) for 30 sec. The PEG was washed off by five times washing with pre-warmed PBS. Supplied with pre-warmed MEM containing again 200 ng/ml PDGFR-alpha-Fc, the cells were then incubated at 37° C. After 2 h incubation the medium was exchanged on PEG-treated and untreated cells and infection was allowed to proceed for 24 h before infection efficiencies were assessed by immediate early staining. Efficient PEG fusion was controlled visually by detection of syncytia.
HCMV virus particles were adsorbed to HFFs for 1 h on ice. The virus containing medium was then exchanged by medium containing PDGFR-alpha-Fc at a concentration of 200 ng/ml. […]

HCMV = assay: Neutralization of cell-free HCMV particles / inhibition of HCMV entry in cell culture; assay type: cell-based, Human cytomegalovirus
Experimental: Infectious cell free HCMV preparations (corresponding to a multiplicity of infection of 1) are pre-incubated with the substance (at variable concentrations) for 2 h at 37° C. The pre-incubated mixture of HCMV and substance is added to cell cultures of choice, including at least a culture of human primary fibroblasts and a culture of human endothelial cells. Cells are incubated with the mixture for 2 h at 37° C. The mixture of HCMV and substance is then replaced with the appropriate cell culture medium and cells are further incubated for at least 16 h at 37° C. HCMV infection of the cells is detected by immunostaining of HCMV immediate early antigens (pUL122/123) with indirect immunofluorescence. The ratio of HCMV-IE antigen-positive cells per total cells is calculated as a readout for the efficiency of viral entry.

HCMV strain TB40/E [2] = assay: Inhibition of infection of endothelial cells (HECs), IE antigen immunofluorescence; assay type: cell-based, Human cytomegalovirus
Experimental: as §1
as §2, with “evaluated. […]” for “evaluated.”

[3] = system: HCMV wild type or UL74stop particles; assay: Staining of wild type and UL74stop (gO deficient) particles with Fc-fusion protein; assay type: binding, Human cytomegalovirus; settings: 500 ng/ml, 2 h
Experimental: To assess the binding of Fc-Proteins to virus particles, HFFs were seeded at a density of 40,000 cells per well on IBIDI plates 1 day prior to infection. Virus preparations were pre-incubated with Fc-fusion proteins at a final concentration of 500 ng/ml for 2 h at 37° C. The virus/Fc-protein mixtures were incubated with the cells for 1.5 h on ice. Before fixation with 80% acetone, the cells were washed once with MEM. For staining of viral particles mouse hybridoma recognizing the abundant viral protein pp150 (generously provided by W. Britt, Sanchez 2000) used. As a secondary antibody goat anti-mouse Cy3 (Jackson Immuno Research was used. Visualization of bound Fc-proteins was achieved by applying anti-human Alexa488 (Invitrogen). For better orientation, cell nuclei were stained with DAPI. For quantification of PDGFR-alpha-Fc binding to HCMV particles, the grey values of 100 particles per condition were quantified using AxioVision Software (Zeiss).
To test whether pUL74 is an interaction partner of PDGFR-alpha-Fc, the inventors tested whether gO deficient particles can be stained with the soluble molecule similarly to wild type particles (shown in FIG. 8). HCMV wild type or UL74stop particles were incubated with 500 ng/ml PDGFR-alpha-Fc or PDGFRβ-Fc for 2 h before attachment to the cells ice. […]

Substance: PDGFR-alpha-Fc: recombinant Fc-fusion protein of the PDGFR-alpha extracellular domain, obtained from R&D (6765-PR-050)
- inhibition of infection of HFFs at 200 ng/ml (HCMV strain TB40/E [1]; 200 ng/ml): complete abrogation of infection
- inhibitory potential of Fc chimeras on HCMV infection of HFFs (HCMV strain TB40/E [1]; increasing concentrations, pre-incubated 2 h): blocked infection in a dose dependent fashion
- EC50 of inhibition of infection of HFFs (HCMV strain TB40/E [1]; virus pre-incubated 2 h): 0.01 to 0.02 µg/mL
- infectivity of already adsorbed viruses (reduced to) (HCMV TB40E; 200 ng/ml added post adsorption, HFFs): 50%
- post adsorption inhibition after addition of PEG (HCMV TB40E; 200 ng/ml, 50% PEG 30 sec): completely rescued
- EC50 of binding to and neutralizing cell-free HCMV particles (HCMV): 0.01 to 0.05 µg/mL
- attachment to and fusion with cells of treated particles (HCMV): reduced attachment to and reduced fusion with cells
- effect when applied post-attachment (HCMV): effective
- extent of reduction of infection of HECs (HCMV strain TB40/E [2]): incomplete
- EC50 of inhibition of infection of HECs (HCMV strain TB40/E [2]; virus pre-incubated 2 h): 0.02 to 0.05 µg/mL
- staining of wild type vs UL74stop particles with anti-human Fc antibody [3]: Only virus particles containing the glycoprotein pUL74 were stained
